The values that follow are results of earlier work, collected in patent US20160174603A1, “Electronic Vapor Liquid Composition and Method of Use” (priority 2014, published 2016).

pKi: −log10 of the molar value.

What is called pKi is the negative decadic logarithm of the Ki, by convention in mol/L.

Data set [1] has as its target acetylcholinesterase (Homo sapiens, UniProt P22303). The conditions noted are these: in vitro.
Data set [2] concerns calcium channel.
Data set [3] relates to NMDA-induced current.
In data set [4] the test system is adenosine receptor. The conditions noted are these: in vitro.
The subject of data set [5] is thermal hyperalgesia.
In data set [6] the target is T1, MAO-B (Homo sapiens, UniProt P27338).
T1 sequence (P27338 1-520): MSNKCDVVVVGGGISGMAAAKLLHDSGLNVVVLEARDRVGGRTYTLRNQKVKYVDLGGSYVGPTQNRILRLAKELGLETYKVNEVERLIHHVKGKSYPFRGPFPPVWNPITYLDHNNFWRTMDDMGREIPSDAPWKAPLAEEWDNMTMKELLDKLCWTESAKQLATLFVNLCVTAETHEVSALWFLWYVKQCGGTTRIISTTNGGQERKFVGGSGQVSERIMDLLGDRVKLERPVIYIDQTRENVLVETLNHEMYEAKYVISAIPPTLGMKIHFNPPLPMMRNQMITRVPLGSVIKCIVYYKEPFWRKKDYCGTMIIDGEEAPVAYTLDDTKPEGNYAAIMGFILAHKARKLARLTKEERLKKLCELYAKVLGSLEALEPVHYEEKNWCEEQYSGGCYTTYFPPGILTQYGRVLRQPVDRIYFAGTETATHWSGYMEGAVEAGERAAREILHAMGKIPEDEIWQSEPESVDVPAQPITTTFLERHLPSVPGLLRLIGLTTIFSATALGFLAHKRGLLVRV
To be noted: read-out: Ki, reversible MAO-B inhibitor.

For data set [7], the system named is dopamine levels in the nucleus accumbens. To be noted: rat, in vivo.
The target in data set [8] is T2, TRPC6 receptor (Homo sapiens, UniProt Q9Y210).
T2 sequence (Q9Y210 1-931): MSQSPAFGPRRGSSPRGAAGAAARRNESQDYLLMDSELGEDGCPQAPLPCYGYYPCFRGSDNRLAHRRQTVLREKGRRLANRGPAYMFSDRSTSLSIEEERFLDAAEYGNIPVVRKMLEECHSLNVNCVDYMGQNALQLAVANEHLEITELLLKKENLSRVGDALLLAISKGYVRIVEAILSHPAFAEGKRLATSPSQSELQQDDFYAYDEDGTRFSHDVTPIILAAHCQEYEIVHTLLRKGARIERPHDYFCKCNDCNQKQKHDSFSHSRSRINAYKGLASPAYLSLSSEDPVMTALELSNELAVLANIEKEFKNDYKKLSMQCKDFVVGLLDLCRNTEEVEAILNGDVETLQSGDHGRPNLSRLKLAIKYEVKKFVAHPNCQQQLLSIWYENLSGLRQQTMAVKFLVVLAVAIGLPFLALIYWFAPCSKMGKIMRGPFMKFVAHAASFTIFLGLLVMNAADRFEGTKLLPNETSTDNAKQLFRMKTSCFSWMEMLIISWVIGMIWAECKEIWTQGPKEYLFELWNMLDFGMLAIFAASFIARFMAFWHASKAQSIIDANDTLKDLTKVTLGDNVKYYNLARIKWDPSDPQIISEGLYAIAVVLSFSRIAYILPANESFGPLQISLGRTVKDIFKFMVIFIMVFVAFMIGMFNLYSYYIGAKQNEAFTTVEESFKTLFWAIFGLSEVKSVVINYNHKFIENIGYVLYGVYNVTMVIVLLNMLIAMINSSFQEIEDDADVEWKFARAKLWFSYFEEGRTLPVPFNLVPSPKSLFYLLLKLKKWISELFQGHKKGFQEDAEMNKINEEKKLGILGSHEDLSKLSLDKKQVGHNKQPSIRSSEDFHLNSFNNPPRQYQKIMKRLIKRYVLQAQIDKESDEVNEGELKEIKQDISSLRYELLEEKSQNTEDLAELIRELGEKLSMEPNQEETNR

The target of data set [9] is norepinephrine transporter (NAT) (Homo sapiens, UniProt P23975). The conditions noted are these: both enantiomeric forms.
Chain of norepinephrine transporter (NAT) (P23975 whole entry): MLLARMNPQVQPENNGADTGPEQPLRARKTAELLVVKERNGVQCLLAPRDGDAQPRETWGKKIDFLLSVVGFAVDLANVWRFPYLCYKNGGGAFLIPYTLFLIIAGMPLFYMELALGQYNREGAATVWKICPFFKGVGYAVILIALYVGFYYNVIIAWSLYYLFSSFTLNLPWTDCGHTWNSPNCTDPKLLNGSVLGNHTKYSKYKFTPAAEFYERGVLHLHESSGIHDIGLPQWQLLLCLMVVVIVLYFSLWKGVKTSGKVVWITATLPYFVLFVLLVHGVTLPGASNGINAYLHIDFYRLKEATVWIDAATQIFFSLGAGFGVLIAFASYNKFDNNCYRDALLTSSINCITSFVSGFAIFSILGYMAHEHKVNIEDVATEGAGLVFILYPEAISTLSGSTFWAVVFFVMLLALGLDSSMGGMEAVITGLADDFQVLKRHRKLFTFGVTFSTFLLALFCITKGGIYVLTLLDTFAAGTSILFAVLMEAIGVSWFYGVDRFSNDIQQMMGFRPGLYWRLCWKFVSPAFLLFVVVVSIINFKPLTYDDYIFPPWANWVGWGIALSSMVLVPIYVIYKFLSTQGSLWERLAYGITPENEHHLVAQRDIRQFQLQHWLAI

Chain of acetylcholinesterase (P22303 32-614, species assumed): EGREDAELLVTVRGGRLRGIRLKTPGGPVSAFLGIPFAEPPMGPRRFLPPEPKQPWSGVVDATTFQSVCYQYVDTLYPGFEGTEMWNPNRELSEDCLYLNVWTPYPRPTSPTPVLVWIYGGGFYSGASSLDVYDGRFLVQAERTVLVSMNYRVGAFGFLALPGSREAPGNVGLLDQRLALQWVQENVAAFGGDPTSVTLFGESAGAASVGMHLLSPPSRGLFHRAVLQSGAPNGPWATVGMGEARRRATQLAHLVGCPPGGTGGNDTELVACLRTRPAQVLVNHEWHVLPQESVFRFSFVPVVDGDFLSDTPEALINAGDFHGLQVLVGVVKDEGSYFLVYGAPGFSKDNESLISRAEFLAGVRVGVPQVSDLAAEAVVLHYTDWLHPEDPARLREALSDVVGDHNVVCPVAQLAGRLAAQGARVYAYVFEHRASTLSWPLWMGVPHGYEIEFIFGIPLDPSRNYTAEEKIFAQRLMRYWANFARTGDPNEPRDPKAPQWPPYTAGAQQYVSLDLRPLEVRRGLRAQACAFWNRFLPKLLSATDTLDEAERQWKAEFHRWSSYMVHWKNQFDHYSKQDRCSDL

In the case of lactucopicrin, the acetylcholinesterase activity result in data set [1] was “acetylcholinesterase inhibitor”. As for `CC[C@H]1CN2CC[C@]3(C(=O)Nc4ccccc43)[C@@H]2C[C@@H]1/C(=C\OC)C(=O)OC` [rhynchophylline], the calcium channel activity result in [2] is given as “calcium channel blocker”. For the same compound, the “effect on NMDA-induced current” value in [3] is “reduces NMDA-induced current”.

In the case of `C=C1C(=O)O[C@@H]2[C@H]3C(CO)=CC(=O)C3=C(C)C[C@@H](O)[C@@H]12` [lactucin], the adenosine receptor activity entry in data set [4] is given as “adenosine receptor agonist”. In the case of `O=C(O)[C@H]1O[C@@H](Oc2cc3oc(-c4ccccc4)cc(=O)c3c(O)c2O)[C@H](O)[C@@H](O)[C@@H]1O` [Baicalin], the “effects in a rat model of thermal hyperalgesia” value in data set [5] was “anti-inflammatory and analgesic effects”. As for `COc1cc(/C=C/c2ccccc2)oc(=O)c1` [Desmethoxyyangonin], in data set [6], the pKi is 6.55. Besides, the “dopamine levels in the nucleus accumbens” value in data set [7] is on record as “able to increase dopamine levels”. `CC(C)=CCC[C@]1(C)[C@@H](CC=C(C)C)C[C@@]2(CC=C(C)C)C(=O)[C@]1(C(=O)C(C)C)C(=O)C(CC=C(C)C)=C2O` [Hyperforin]: the TRPC6 receptor activity result in data set [8] is reported as “TRPC6 receptor agonists”. With `CCC(C)C(=O)[C@]12C(=O)[C@](CC=C(C)C)(C[C@H](CC=C(C)C)[C@@]1(C)CCC=C(C)C)C(=O)C(CC=C(C)C)=C2O` (stereo partly shown) [adhyperforin], the TRPC6 receptor activity entry in data set [8] was “TRPC6 receptor agonists”.

For `COC1=CC(=O)O[C@@H](/C=C/c2ccccc2)C1` [Kavain], the “reuptake of norepinephrine at the transporter (NAT)” value in [9] is “inhibits the reuptake of norepinephrine”.
